Assay results from patent US20250280696A1, “FORMULATIONS AND USES THEREOF IN OPTOELECTRONIC FIELD” (Zhejiang Brilliant Optoelectronic Technology Co.,Ltd., priority 2022, published 2025).

How the values were obtained:
Type in all cases: physicochemical
[1] = Absorption spectrum, emission spectrum and extinction coefficient in toluene solution; conditions: at maximum absorption peak
Procedure: The extinction coefficients of the compounds and their absorption and emission spectrums in the solution were determined as follows: • 1. The compound with a certain amount of substance concentration in the toluene was prepared in a volumetric flask. • 2. The absorption spectrum of the solution was measured by using an ultraviolet-visible spectrophotometer (Puxi T9s) to obtain the absorption peak wavelength. • 3. The absorbance of the maximum absorption peak divided by the amount of substance concentration is the molar extinction coefficient of the compound. • 4. The emission spectrum of the solution was measured by using a fluorescent spectroscope (Hitachi, F-4700 FL Spectrophotometer) to obtain the emission peak wavelength.
(§1) The extinction coefficients of the compounds and their absorption and emission peaks in the solution and film are shown in Table 3.

[2] = Solubility of compounds in toluene; conditions: per 100 g toluene
Procedure: The solubility of the compounds in the toluene were determined as follows: • 1. 1000 mg toluene was placed in the transparent glass sample bottle. • 2. A certain mass of the compound was added into the toluene, and oscillated until completely dissolved. • 3. After the compound was completely dissolved, a certain mass of the compound was further added into the toluene, and oscillated. • 4. The above steps were repeated until the compound wasn't dissolved any more. • 5. The total mass of the compound added was recorded and the solubility was obtained by calculation.

[3] = UV stability of compounds in toluene (absorbance decay, t80); conditions: UV LEDs 365 nm & 255 nm, 12 cm, time until absorbance decayed to 80% of initial value
Procedure: The UV stability of the compounds were tested as follows:
The compound was dissolved in the toluene with a concentration of 1×10^5 mol/L. 3 mL solution was added to the cuvette with a lid and the lid was screwed on tightly, then the cuvette was placed in the ultraviolet-visible spectrophotometer to test the absorption spectrum, the absorbance of the maximum absorption peak was recorded as the initial value. The cuvette was placed at a distance of 12 cm from the UV LEDs (365 nm & 255 nm), irradiated for a period and tested its absorption spectrum, then continued to be irradiated after the test, and repeated until the absorbance decayed to 80% of its initial value, the time was recorded as t80.

[4] = Absorption and emission spectrum in spin-coated film; conditions: film vs toluene solution
Procedure: The Absorption and emission spectrums of the compounds in the film were determined as follows: • 1. The compound with a certain concentration in the toluene was prepared. • 2. The prepared toluene solution was dropped onto a clean glass substrate. • 3. Spin-coating, and then heating at the 80° C. for 1 min. • 4. The absorption spectrum of the film was measured by using an ultraviolet-visible spectrophotometer (Puxi T9s) to obtain the absorption peak wavelength. • 5. The emission spectrum of the film was measured by using a fluorescent spectroscope (Hitachi, F-4700 FL Spectrophotometer) to obtain the emission peak wavelength.
as §1

Structure (SMILES) | Molar extinction coefficient of the toluene solution [1] [L/mol] | Solubilities(/100 g toluene) [2] [g] | Times t80 [3] [min] | Red shift of the spectrum in the film relative to the solution [4]
CC1CCC(C(C)C)C(Oc2ccc(-c3cc(C(C)C)ccc3N(c3cc(F)c(F)c(F)c3)c3cc(N(c4cc(F)c(F)c(F)c4)c4ccc(C(C)C)cc4-c4ccc(OC5CC(C)CCC5C(C)C)cc4)c4ccc5c(N(c6cc(F)c(F)c(F)c6)c6ccc(C(C)C)cc6-c6ccc(OC7CC(C)CCC7C(C)C)cc6)cc(N(c6cc(F)c(F)c(F)c6)c6ccc(C(C)C)cc6-c6ccc(OC7CC(C)CCC7C(C)C)cc6)c6ccc3c4c65)cc2)C1 (stereo not drawn) [Compound 23] | 68000 | >10 | 405 | very small red shift
CCCCCCCCc1ccc(-c2cc(OC)ccc2N(c2cc(F)c(F)c(F)c2)c2cc(N(c3cc(F)c(F)c(F)c3)c3ccc(OC)cc3-c3ccc(CCCCCCCC)cc3)c3ccc4c(N(c5cc(F)c(F)c(F)c5)c5ccc(OC)cc5-c5ccc(CCCCCCCC)cc5)cc(N(c5cc(F)c(F)c(F)c5)c5ccc(OC)cc5-c5ccc(CCCCCCCC)cc5)c5ccc2c3c54)cc1 [Compound 24] | 70000 | >10 | 352 | very small red shift
CCCCCCCCc1ccc(N(c2ccc(C(C)C)cc2-c2cc(F)c(F)c(F)c2)c2cc(N(c3ccc(CCCCCCCC)cc3)c3ccc(C(C)C)cc3-c3cc(F)c(F)c(F)c3)c3ccc4c(N(c5ccc(CCCCCCCC)cc5)c5ccc(C(C)C)cc5-c5cc(F)c(F)c(F)c5)cc(N(c5ccc(CCCCCCCC)cc5)c5ccc(C(C)C)cc5-c5cc(F)c(F)c(F)c5)c5ccc2c3c54)cc1 [Compound 26] | 55000 | >10 | 486 | very small red shift
